Calls of active or inactive are those of the source.
Columns and labels:
[1] = target: T1, Short transient receptor potential channel 4 (Mus musculus, UniProt Q9QUQ5); experiment: block of DAMGO-driven TRPC4 calcium entry – cell-based, HEK293 TRPC4/mu-opioid, Fluo-4 calcium, dose response (AID 434942); type: functional;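 further: potency of inhibitors blocking the TRPC4 calcium response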
T1 sequence (Q9QUQ5 whole entry): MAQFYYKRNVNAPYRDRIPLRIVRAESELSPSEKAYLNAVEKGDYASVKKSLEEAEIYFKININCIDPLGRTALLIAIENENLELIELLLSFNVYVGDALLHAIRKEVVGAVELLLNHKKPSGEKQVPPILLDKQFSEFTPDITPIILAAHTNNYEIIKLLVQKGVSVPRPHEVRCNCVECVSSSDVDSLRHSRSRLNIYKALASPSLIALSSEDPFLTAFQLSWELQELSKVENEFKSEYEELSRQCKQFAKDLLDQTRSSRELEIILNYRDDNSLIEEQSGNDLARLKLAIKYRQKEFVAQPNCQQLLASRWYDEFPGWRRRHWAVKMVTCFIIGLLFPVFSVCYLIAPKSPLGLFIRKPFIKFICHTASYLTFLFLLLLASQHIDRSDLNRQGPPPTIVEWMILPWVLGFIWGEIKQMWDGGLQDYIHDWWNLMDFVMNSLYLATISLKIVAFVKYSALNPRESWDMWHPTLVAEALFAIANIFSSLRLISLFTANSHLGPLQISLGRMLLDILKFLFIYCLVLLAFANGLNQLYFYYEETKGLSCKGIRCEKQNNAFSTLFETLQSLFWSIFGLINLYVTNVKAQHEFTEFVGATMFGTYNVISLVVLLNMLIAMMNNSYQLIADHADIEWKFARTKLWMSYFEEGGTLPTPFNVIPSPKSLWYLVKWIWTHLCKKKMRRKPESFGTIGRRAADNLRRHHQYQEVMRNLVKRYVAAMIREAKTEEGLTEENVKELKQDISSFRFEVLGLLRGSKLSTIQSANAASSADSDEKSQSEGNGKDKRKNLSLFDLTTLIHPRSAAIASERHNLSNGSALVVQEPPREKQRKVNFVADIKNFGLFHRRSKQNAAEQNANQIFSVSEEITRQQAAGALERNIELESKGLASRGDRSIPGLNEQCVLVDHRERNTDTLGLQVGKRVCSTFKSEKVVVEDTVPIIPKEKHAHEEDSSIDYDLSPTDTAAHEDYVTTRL

[2] = target: T2, Polyadenylate-binding protein 1 (Homo sapiens, UniProt P11940); experiment: MLLE domain peptide-binding blockers, IC50 – biochemical, fluorescence polarization, FITC-PAM2 peptide, dose response (AID 602259); type: functional; settings: read-out: IC50_Mean
T2 sequence (P11940 whole entry, the tested form may be a part): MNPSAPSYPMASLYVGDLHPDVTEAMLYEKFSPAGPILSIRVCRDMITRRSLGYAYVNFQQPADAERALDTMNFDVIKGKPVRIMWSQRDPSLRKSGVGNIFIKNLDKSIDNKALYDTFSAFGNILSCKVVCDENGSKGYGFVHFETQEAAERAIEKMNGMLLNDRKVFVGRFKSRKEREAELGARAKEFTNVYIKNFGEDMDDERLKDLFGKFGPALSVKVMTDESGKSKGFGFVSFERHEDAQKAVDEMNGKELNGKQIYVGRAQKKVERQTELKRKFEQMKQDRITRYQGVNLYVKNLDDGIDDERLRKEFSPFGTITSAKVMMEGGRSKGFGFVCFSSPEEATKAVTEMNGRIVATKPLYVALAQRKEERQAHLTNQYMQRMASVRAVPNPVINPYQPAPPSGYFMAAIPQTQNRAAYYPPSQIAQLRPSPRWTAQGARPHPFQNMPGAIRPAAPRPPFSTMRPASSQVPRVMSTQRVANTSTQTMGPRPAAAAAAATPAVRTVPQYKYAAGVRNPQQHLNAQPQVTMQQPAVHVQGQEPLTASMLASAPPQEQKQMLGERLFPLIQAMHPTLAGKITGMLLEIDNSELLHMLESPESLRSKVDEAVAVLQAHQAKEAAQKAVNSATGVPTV

[3] = target: T2, Polyadenylate-binding protein 1; experiment: MLLE binding blockers, Cy5 peptide tracer – biochemical, fluorescence polarization, Cy5-PAM2 peptide, secondary, miRNA deadenylation inhibitor project, dose response (AID 602260); type: functional; settings: read-out: IC50_Mean
[4] = target: T3, Mannose-6-phosphate isomerase (Homo sapiens, UniProt P34949); experiment: MPI inhibition at elevated mannose 6-phosphate – biochemical, fluorescence intensity, high mannose 6-phosphate, primary screen (AID 1220)
T3 sequence (P34949 whole entry): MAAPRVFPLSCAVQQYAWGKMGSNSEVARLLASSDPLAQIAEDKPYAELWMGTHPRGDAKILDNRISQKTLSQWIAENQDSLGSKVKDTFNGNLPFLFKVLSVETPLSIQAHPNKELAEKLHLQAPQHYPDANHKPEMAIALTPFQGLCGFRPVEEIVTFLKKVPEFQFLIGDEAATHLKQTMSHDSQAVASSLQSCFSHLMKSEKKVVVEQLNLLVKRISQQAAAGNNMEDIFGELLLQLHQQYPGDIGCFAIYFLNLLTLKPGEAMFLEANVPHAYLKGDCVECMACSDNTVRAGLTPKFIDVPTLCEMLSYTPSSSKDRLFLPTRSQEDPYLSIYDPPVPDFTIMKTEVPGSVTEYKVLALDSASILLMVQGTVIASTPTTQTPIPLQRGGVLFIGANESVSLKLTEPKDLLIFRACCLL

[5] = target: Cytochrome P450 2C9 (Homo sapiens, UniProt P11712); settings: Potency
Cytochrome P450 2C9, sequence (P11712 whole entry): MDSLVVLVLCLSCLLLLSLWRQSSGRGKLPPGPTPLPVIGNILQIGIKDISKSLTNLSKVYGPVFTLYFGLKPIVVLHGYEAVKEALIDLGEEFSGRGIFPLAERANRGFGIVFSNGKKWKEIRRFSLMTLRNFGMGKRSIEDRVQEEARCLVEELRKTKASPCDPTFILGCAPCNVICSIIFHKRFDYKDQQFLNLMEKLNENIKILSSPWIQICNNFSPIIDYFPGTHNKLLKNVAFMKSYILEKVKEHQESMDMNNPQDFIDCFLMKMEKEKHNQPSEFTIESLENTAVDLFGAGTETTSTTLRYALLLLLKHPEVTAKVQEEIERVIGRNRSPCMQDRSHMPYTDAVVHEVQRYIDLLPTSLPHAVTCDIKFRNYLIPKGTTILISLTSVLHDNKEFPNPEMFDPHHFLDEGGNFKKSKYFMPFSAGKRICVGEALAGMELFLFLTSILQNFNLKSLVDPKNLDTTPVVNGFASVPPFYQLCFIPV

[6] = target: Large T antigen (Simian virus 40, UniProt P03070); type: functional, Betapolyomavirus macacae;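 further: Confirmatory-stage PubChem screen for compounds that inhibit SV40 T antigen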
Large T antigen, sequence (P03070 whole entry): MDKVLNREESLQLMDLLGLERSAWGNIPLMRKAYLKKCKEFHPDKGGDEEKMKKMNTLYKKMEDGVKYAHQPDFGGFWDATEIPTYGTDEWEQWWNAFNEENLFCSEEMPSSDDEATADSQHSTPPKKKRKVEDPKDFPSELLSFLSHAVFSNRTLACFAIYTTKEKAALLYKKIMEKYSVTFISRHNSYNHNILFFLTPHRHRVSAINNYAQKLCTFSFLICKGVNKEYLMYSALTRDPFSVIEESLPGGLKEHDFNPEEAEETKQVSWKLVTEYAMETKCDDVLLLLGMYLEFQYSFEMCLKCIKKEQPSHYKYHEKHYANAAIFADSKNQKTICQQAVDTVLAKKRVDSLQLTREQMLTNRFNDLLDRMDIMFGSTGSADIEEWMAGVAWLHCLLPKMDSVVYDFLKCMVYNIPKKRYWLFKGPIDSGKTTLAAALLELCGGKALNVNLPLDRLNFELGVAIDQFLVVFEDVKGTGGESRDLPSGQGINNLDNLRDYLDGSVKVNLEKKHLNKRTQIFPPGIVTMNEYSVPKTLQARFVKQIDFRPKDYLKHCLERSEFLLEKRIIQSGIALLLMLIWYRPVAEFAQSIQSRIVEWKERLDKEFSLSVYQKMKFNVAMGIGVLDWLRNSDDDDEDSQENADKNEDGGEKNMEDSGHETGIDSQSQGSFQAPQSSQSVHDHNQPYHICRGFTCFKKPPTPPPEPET

[7] = target: T4, Coagulation factor XII (Homo sapiens, UniProt P00748); type: functional;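 further: activated factor XIIa alpha cleaving a fluorogenic AMC peptide substrate; inhibitor potency from loss of enzyme activity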
T4 sequence (P00748 whole entry): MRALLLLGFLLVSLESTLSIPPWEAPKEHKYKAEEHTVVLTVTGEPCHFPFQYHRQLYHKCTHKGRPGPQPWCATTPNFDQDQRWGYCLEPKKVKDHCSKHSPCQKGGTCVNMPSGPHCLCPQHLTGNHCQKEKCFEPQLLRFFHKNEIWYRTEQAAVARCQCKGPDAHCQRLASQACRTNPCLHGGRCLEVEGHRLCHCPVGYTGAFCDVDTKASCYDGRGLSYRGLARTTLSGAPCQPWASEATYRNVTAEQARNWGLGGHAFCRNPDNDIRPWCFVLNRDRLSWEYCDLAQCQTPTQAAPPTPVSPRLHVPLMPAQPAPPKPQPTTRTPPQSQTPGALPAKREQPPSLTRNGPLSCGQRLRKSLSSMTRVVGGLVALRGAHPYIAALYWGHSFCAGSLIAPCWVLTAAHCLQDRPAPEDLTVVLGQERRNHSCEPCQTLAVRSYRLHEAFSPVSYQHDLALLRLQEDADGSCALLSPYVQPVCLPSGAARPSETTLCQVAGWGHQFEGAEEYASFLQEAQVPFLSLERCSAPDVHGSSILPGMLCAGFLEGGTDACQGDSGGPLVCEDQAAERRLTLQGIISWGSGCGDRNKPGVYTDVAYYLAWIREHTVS

[8] = target: FAD-linked sulfhydryl oxidase ALR (Homo sapiens, UniProt P55789); experiment: ALR-catalysed DTT oxidation blockers – biochemical, H2O2 detection, luminescence, cherry-pick, dose response (AID 493248)
FAD-linked sulfhydryl oxidase ALR, sequence (P55789 whole entry): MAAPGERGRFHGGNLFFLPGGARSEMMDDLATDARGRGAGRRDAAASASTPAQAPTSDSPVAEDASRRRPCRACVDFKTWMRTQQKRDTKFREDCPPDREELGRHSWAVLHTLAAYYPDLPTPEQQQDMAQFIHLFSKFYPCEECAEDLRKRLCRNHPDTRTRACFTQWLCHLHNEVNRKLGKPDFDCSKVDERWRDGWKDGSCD

[9] = cells; type: functional, cell-based
[10] = cells; type: functional, cell-based; remark: listed apart in the source
[11] = target: Prothrombin (Homo sapiens, UniProt P00734); experiment: Thrombin 1536 HTS Dose Response Confirmation. [Related pubchem assays: 1046 (Thrombin 1536 HTS; hits were confirmed in this assay)]; type: functional
[12] = viability loss of HPDE-C7K cells – cell-based, fluorescence, HTS, primary screen (AID 431); type: functional; settings: Homo sapiens
[13] = target: T5, Ubiquitin-conjugating enzyme E2 N (Homo sapiens, UniProt P61088); type: functional;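 further: Dose-response confirmation in a TR-FRET assay detecting UBC13-driven polyubiquitin chain formation, inhibition measured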
T5 sequence (P61088 whole entry): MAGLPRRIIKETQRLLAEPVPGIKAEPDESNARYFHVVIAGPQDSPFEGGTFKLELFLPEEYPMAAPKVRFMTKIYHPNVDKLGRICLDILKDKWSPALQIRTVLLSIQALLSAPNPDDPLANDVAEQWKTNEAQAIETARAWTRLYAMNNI

[14] = target: T6, Cytochrome P450 3A4 (Homo sapiens, UniProt P08684); settings: Potency
T6 sequence (P08684 whole entry): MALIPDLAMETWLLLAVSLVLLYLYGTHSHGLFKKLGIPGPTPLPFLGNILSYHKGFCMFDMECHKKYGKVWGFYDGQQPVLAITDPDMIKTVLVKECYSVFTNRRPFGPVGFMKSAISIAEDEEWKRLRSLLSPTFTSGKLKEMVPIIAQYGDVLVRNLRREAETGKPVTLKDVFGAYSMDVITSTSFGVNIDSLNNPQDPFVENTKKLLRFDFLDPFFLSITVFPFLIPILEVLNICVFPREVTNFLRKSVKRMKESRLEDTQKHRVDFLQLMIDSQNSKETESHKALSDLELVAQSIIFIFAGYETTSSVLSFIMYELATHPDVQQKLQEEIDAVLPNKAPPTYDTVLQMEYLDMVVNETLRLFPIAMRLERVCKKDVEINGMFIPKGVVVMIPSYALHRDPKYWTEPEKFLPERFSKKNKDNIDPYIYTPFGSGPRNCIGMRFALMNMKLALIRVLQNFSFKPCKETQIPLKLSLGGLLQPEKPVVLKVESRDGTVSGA

[15] = HPDE-C7 pancreatic duct cell viability loss – fluorescence, HTS (AID 430); type: functional, cell-based; settings: Homo sapiens
[16] = Luminescence Cell-Based Dose Retest to Confirm Inhibitors of Cancer Stem Cells. [Related pubchem assays (depositor defined):AID2717, AID2721]; type: functional; settings: Homo sapiens
[17] = target: T6, Cytochrome P450 3A4

With Cc1onc(-c2c(F)cccc2Cl)c1C(=O)N(C)CC(=O)Nc1cccc(F)c1 the EC50 [1] was 2.11 µM (active).
For N#Cc1cc2c(nc1S)CCCCCC2, the IC50 [2] was > 66 µM (inactive), the IC50 [3] was > 66 µM (inactive) and the IC50 [4] was > 50 µM (not active).
With C=CCOC(=O)C(C(C)=O)C(NC(=O)OC)c1cccc(F)c1 (configuration not stated) the AC50 [5] was 1 µM (inconclusive).
For N#Cc1ccsc1NC(=O)CN1CCN(c2ccc(O)cc2)CC1, the IC50 [6] was 6.44 µM (active).
With COc1ccc(S(=O)(=O)N2CCCC2C(=O)Nn2cnnc2)cc1 (configuration not stated) the IC50 [7] was > 50 µM (inactive).
In the case of CCN(CC)c1ccc(N/C=C2/C(=O)NC(=O)N(c3ccccc3C)C2=O)cc1, the AC50 [8] is reported as 1.46 µM (active) and the IC50 [6] is reported as > 100 µM (active).
For O=C1CCCC2=C1C(Cc1ccccc1)C1=C(CCCC1=O)O2, the EC50 [9] was > 350 µM (not active) and the EC50 [10] was > 350 µM (not active).
In the case of O=C(COC(=O)c1ccc(O)cc1)NCCCc1ccccc1, the IC50 [11] is reported as > 50 µM (not active) and the IC50 [7] is reported as > 50 µM (inactive).
In the case of Cc1nc2sccn2c(=O)c1CCN1CCC(=C(c2ccc(F)cc2)c2ccc(F)cc2)CC1 [RITANSERIN], the AC50 [5] is reported as 25.1 µM (inconclusive), the EC50 [12] is reported as > 20 µM (not active) and the IC50 [13] is reported as > 20 µM (inactive). The AC50 [14] was 20 µM (inconclusive), the EC50 [15] was > 20 µM (not active) and the AC50 [16] was 6.23 µM (active).
In the case of CCCc1nnc(NC(=O)CCC(=O)N2CCN(c3ccccn3)CC2)s1, the AC50 [17] is reported as “inconclusive”.
For CC1CN(c2nc3ccccn3c(=O)c2/C=C(\C#N)C(=O)N2CCOCC2)CC(C)O1 (configuration not stated), the EC50 [9] was > 350 µM (not active) and the EC50 [10] was > 350 µM (not active).
